From PubChem BioAssay AID624350 (Johns Hopkins Ion Channel Center, 2012)
Where “and” joins values, the source holds several entries; their conditions need not be identical. Identical values can stand only once. Calls of active or inactive are those of the source.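 The calls were made as follows: active = over 50% block of the Kir2.1 potassium channel by compound at 30 µM; inactive = the rest.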

Target: Inward rectifier potassium channel 2 (Mus musculus) (UniProt P35561)
Experiment: blockers of inward rectifier channel Kir2.1 – cell-based, HEK293, thallium flux, FluxOR fluorescence, dose response (AID 624350)
Conditions: HEK293 Kir2.1, FluxOR thallium flux fluorescence, 20 min

Chain of Inward rectifier potassium channel 2 (Mus musculus) (P35561 whole entry, looked up): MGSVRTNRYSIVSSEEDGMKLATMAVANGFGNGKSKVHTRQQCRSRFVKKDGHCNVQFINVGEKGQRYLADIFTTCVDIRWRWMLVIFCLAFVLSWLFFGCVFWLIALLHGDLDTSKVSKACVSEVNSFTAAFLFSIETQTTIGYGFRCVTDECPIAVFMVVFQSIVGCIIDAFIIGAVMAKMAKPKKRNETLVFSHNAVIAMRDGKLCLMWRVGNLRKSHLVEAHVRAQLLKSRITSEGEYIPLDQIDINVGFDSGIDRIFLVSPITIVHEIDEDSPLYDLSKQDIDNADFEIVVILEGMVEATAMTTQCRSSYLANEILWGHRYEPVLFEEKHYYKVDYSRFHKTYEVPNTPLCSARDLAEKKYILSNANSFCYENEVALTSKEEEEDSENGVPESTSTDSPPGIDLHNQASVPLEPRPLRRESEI

outcome | IC50 | Structure (SMILES)
inactive |  | O=S(=O)(NCc1ccco1)c1ccc(Br)cc1
inactive |  | COCc1nc2ccccc2n1-c1ccccc1
inactive |  | Cc1ccc(C)c(OCCCN2CCOCC2)c1
inactive |  | Cc1ccc(C)c(OCCCN(C)CCO)c1
inactive |  | C[C@@H](c1ccccc1)N(Cc1ccccc1)S(=O)(=O)c1ccc(Br)cc1
inactive |  | O=S(=O)(NCc1cccc2ccccc12)c1ccc(Br)cc1
 | 29.9 µM | c1ccc(Cc2nc3ccccc3n2Cc2ccccc2)cc1
inactive |  | CN1CCN(S(=O)(=O)c2ccc(Br)cc2)CC1
 | 7.81 µM | COc1ccccc1CCNS(=O)(=O)c1ccc(Br)cc1
 | 28.4 µM | O=S(=O)(NC1Cc2ccccc2C1)c1ccc(Br)cc1
 | 23 µM | CCN(Cc1ccncc1)S(=O)(=O)c1ccc(Br)cc1
inactive |  | COc1ccc(N2CCN(S(=O)(=O)c3ccc(Br)cc3)CC2)cc1
inactive |  | COCc1nc2ccccc2n1CCN1CCOCC1
 | 17.9 µM | O=S(=O)(c1ccc(Br)cc1)N1CCc2ccccc21
inactive |  | O=S(=O)(NCc1cccc(F)c1)c1ccc(Br)cc1
 | 15 µM | c1ccc(Cc2nc3ccccc3n2-c2ccccc2)cc1
inactive |  | Cc1ccc(C)c(OCCCOCc2ccccc2)c1
 | 12.6 µM | O=S(=O)(c1cccc(Br)c1)N1CCCc2ccccc21
inactive |  | O=S(=O)(NCCc1ccccc1)c1ccc(Br)cc1
 | 8.91 µM | Cc1ccc(C)c(OCCCNCc2ccccc2)c1
inactive |  | O=S(=O)(N[C@H]1c2ccccc2C[C@H]1O)c1ccc(Br)cc1

outcome | IC50 | Structure (SMILES)
 | inactive | Cc1ccc(C)c(OCCCNC[C@@H](C)O)c1
 | 10.6 µM | Cc1ccc(C)c(OCCCNCCc2ccccc2)c1
 | 11.9 µM | Cc1ccc(C)c(OCCCN(C)Cc2ccccc2)c1
inactive |  | O=S(=O)(NCc1ccccc1)c1ccc(Br)cc1
 | 11.2 µM | O=S(=O)(c1ccccc1F)N1CCCc2ccccc21
inactive |  | COCc1nc2ccccc2n1CC(C)C
inactive |  | COc1ccc(CCNS(=O)(=O)c2ccc(Br)cc2)cc1OC
 | 16.3 µM | O=S(=O)(NCc1ccc(F)cc1F)c1ccc(Br)cc1
inactive |  | COCc1nc2ccccc2n1C1CC1
inactive |  | O=S(=O)(NCc1ccncc1)c1ccc(Br)cc1
inactive |  | Cc1ccc(C)c(OCCCN2CCCCC2)c1
 | 12.6 µM | O=S(=O)(c1cccc(F)c1)N1CCCc2ccccc21
 | inactive | Cc1ccc(C)c(OCCCNCc2ccco2)c1
inactive |  | CCN(CC)CCCOc1cc(C)ccc1C
inactive |  | O=S(=O)(c1ccc(Br)cc1)N1CCC(c2ccccc2)CC1
inactive |  | O=C(c1ccc(F)cc1)N1CCCc2ccccc21
 | 15.6 µM | O=S(=O)(NCc1cc(F)cc(F)c1)c1ccc(Br)cc1
inactive |  | O=S(=O)(NCc1cccnc1)c1ccc(Br)cc1
inactive |  | CN(Cc1ccccc1)S(=O)(=O)c1ccc(Br)cc1
 | 11.9 µM | O=S(=O)(c1ccc(F)cc1)N1CCCc2ccccc21
inactive |  | C[C@H](NC(=O)c1ccc(Br)cc1)c1ccccc1

outcome | IC50 | Structure (SMILES)
inactive |  | COCc1nc2ccccc2n1Cc1ccccc1
inactive |  | Cc1ccc(C)c(OCCCNC[C@H](C)O)c1
 | 17.8 µM | O=[N+]([O-])c1ccc(CNS(=O)(=O)c2ccc(Br)cc2)cc1
inactive |  | O=S(=O)(c1ccc(Br)cc1)N1CCCCC1
inactive |  | O=S(=O)(c1ccc(Br)cc1)N1CCN(c2ccc(Cl)c(Cl)c2)CC1
inactive |  | O=S(=O)(NCc1ccccn1)c1ccc(Br)cc1
 | 11.3 µM | O=S(=O)(NCc1ccc(F)c(F)c1)c1ccc(Br)cc1
 | 18.9 µM | Cc1ccc(C)c(OCCCNCC2CCCCC2)c1
 | 13.4 µM | Cc1ccc(C)c(OCCCNCc2ccc(Cl)c(Cl)c2)c1
inactive |  | c1ccc(Cc2nc3ccccc3n2C2CC2)cc1
inactive |  | Cc1ccc(C)c(OCCCNCCO)c1
 | 10 µM | O=S(=O)(c1ccccc1Br)N1CCCc2ccccc21
inactive |  | C[C@@H](NC(=O)c1ccc(Br)cc1)c1ccccc1
inactive |  | O=S(=O)(NCC(c1ccccc1)c1ccccc1)c1ccc(Br)cc1
 | 15.8 µM and 13.4 µM | O=S(=O)(c1ccc(Br)cc1)N1CCCc2ccccc21
 | 13.4 µM | O=S(=O)(NCCc1c[nH]c2ccccc12)c1ccc(Br)cc1
inactive |  | Cc1ccc(C)c(OCCCNc2ccccc2)c1
 | 9.46 µM | C[C@@H](NS(=O)(=O)c1ccc(Br)cc1)c1cccc2ccccc12
 | 11.2 µM | Cc1ccc(C)c(OCCCNCc2cccc3ccccc23)c1
 | 28.4 µM | CC(C)Cn1c(Cc2ccccc2)nc2ccccc21
